Target: unphosphorylated-BTK kinase domain (UP-BTK), GST-tagged human BTK (389-659aa) (Homo sapiens (Human), UniProt Q06187)
Assay: BTK kinase Lanthascreen binding assay
Settings: Lanthascreen tracer competition, 60 minutes incubation; pIC50 = negative log of the IC50 in molar
How it was run: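 Lanthascreen competition binding; test compound vs fluorescent tracer on unphosphorylated BTK. Output: pIC50 (−log IC50, M).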

unphosphorylated-BTK kinase domain (UP-BTK), GST-tagged human BTK (389-659aa), sequence (Q06187 389-659): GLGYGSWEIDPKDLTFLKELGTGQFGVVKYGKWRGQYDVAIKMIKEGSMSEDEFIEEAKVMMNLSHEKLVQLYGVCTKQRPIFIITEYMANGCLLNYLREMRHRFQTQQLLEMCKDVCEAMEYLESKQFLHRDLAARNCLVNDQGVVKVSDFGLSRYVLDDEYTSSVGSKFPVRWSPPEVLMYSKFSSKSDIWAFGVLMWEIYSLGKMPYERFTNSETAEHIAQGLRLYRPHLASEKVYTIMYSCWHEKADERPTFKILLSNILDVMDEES

| SMILES | BTK_I_binding pIC50 |
| --- | --- |
| CCC(=O)N1CCCC(C(=O)Nc2sc3nccc4c3c2NC(=O)N4c2ccc(Oc3ccccc3)cc2C)C1 (stereo not shown) [Example 818, N-(5-(2-Methyl-4-phenoxyphenyl)-4-oxo-4,5-dihydro-3H-1-thia-3,5,8-triazaacenaphthylen-2-yl)-1-propionylpiperidine-3-carboxamide] | 5.9 |
| Cc1nc(Oc2ccccc2)ccc1N1C(=O)Nc2c(C(=O)N[C@@H]3CCNC3)sc3nccc1c23 (single isomer, unassigned) [Example 717, (R)-5-(*S)-(2-Methyl-6-phenoxypyridin-3-yl)-4-oxo-N-(pyrrolidin-3-yl)-4,5-dihydro-3H-1-thia-3,5,8-triazaacenaphthylene-2-carboxamide] | 6.4 |
| C=CC(=O)N1CCC[C@@H](NC(=O)c2sc3nccc4c3c2NC(=O)N4c2ccc(OC3CCOCC3)nc2C)C1 [Example 770, (R)—N-(1-Acryloylpiperidin-3-yl)-5-(2-methyl-6-((tetrahydro-2H-pyran-4-yl)oxy)pyridin-3-yl)-4-oxo-4,5-dihydro-3H-1-thia-3,5,8-triazaacenaphthylene-2-carboxamide] | <6 |
| Cc1cnc(-c2ccccc2)cc1N1C(=O)Nc2c(C(=O)N[C@@H]3CCCNC3)sc3nccc1c23 [Example 729, (R)-5-(5-Methyl-2-phenylpyridin-4-yl)-4-oxo-N-(piperidin-3-yl)-4,5-dihydro-3H-1-thia-3,5,8-triazaacenaphthylene-2-carboxamide] | <6 |
| C=CC(=O)N1CCC[C@@H](NC(=O)c2sc3nccc4c3c2NC(=O)N4c2ccc(OC(C)C)c(C)c2)C1 [Example 633, (R)—N-(1-Acryloylpiperidin-3-yl)-5-(4-isopropoxy-3-methylphenyl)-4-oxo-4,5-dihydro-3H-1-thia-3,5,8-triazaacenaphthylene-2-carboxamide] | 5.8 |
| C=CC(=O)N1CCC[C@@H](NC(=O)c2sc3nccc4c3c2NC(=O)N4c2cnc(Oc3ccccc3)cc2C)C1 [Example 667, (R)—N-(1-Acryloylpiperidin-3-yl)-5-(4-methyl-6-phenoxypyridin-3-yl)-4-oxo-4,5-dihydro-3H-1-thia-3,5,8-triazaacenaphthylene-2-carboxamide] | 7.9 |
| Cc1cc(Oc2ccccc2)ccc1N1C(=O)Nc2c(C(=O)N[C@H]3CCCN(C=O)C3)sc3nccc1c23 [Example 879, (S)—N-(1-Formylpiperidin-3-yl)-5-(2-methyl-4-phenoxyphenyl)-4-oxo-4,5-dihydro-3H-1-thia-3,5,8-triazaacenaphthylene-2-carboxamide] | 7.1 |

Same assay, conditions: pIC50 = negative log of the IC50 in molar; 60 minutes incubation, 50 nM Tracer 236

| SMILES | BTK_I_binding pIC50 |
| --- | --- |
| Cc1cc(Oc2ccccc2)ccc1N1C(=O)Nc2c(C(=O)N[C@H]3CN(C)C[C@@H]3O)sc3nccc1c23 [Example 243, N-((3S,4S)-4-Hydroxy-1-methylpyrrolidin-3-yl)-5-(2-methyl-4-phenoxyphenyl)-4-oxo-4,5-dihydro-3H-1-thia-3,5,8-triazaacenaphthylene-2-carboxamide] | 6.6 |
| Cc1cc(Oc2ccccc2)ccc1N1C(=O)Nc2c(C(=O)NC3CCC(=O)N(C)C3)sc3nccc1c23 (stereo not shown) [Example 162, 5-(2-Methyl-4-phenoxyphenyl)-N-(1-methyl-6-oxopiperidin-3-yl)-4-oxo-4,5-dihydro-3H-1-thia-3,5,8-triazaacenaphthylene-2-carboxamide] | 6.8 |
| Cc1cc(Oc2ccccc2)ccc1N1C(=O)Nc2c(C(=O)N[C@@H]3CCN(C(C)C)C3)sc3nccc1c23 (single isomer, unassigned) [Example 93, (R)—N-(1-Isopropylpyrrolidin-3-yl)-5-(*S)-(2-methyl-4-phenoxyphenyl)-4-oxo-4,5-dihydro-3H-1-thia-3,5,8-triazaacenaphthylene-2-carboxamide] | 7.1 |
| Cc1cc(Oc2ccccc2)ccc1N1C(=O)Nc2c(C(=O)NC3CCCN(C(=O)/C=C/CO)C3)sc3nccc1c23 (stereo in doubt) [Example 25, (S,E)-N-(1-(4-Hydroxybut-2-enoyl)piperidin-3-yl)-5-(2-methyl-4-phenoxyphenyl)-4-oxo-4,5-dihydro-3H-1-thia-3,5,8-triazaacenaphthylene-2-carboxamide] | 7.5 |
| Cc1cc(Oc2ccccc2)ccc1N1C(=O)Nc2c(C(=O)N[C@@H]3CCCN(C(=O)CCO)C3)sc3nccc1c23 (single isomer, unassigned) [Example 99, (R)—N-(1-(3-Hydroxypropanoyl)piperidin-3-yl)-5-(*S)-(2-methyl-4-phenoxyphenyl)-4-oxo-4,5-dihydro-3H-1-thia-3,5,8-triazaacenaphthylene-2-carboxamide] | 7.6 |
| COCCC(=O)N1CC[C@@H](NC(=O)c2sc3nccc4c3c2NC(=O)N4c2ccc(Oc3ccccc3)cc2C)C1 [Example 72, (R)—N-(1-(3-Methoxypropanoyl)pyrrolidin-3-yl)-5-(2-methyl-4-phenoxyphenyl)-4-oxo-4,5-dihydro-3H-1-thia-3,5,8-triazaacenaphthylene-2-carboxamide] | 7.4 |

Same assay, conditions: pIC50 = negative log of the IC50 in molar; 60 minutes incubation, 50 nM Tracer 236; read-out: BTK_I_binding pIC50 (converted)

| SMILES | IC50 |
| --- | --- |
| C=CC(=O)N1C[C@@H](F)[C@@H](NC(=O)c2sc3nccc4c3c2NC(=O)N4c2ccc(Oc3ccccc3)cc2C)C1 (single isomer, unassigned) [Example 28, N-((3S,4R)-1-Acryloyl-4-fluoropyrrolidin-3-yl)-5-(*S)-(2-methyl-4-phenoxyphenyl)-4-oxo-4,5-dihydro-3H-1-thia-3,5,8-triazaacenaphthylene-2-carboxamide] | 12.6 nM |

Same assay, conditions: unphosphorylated-BTK kinase domain, 50 nM Tracer 236, 60 minutes; pIC50 = negative log of the IC50 in molar

| SMILES | BTK_I_binding pIC50 |
| --- | --- |
| Cc1cc(Oc2ccccc2)nnc1N1C(=O)Nc2c(C(=O)N[C@@H]3CCCN(C)C3)sc3nccc1c23 [Example 350, (R)-5-(4-Methyl-6-phenoxypyridazin-3-yl)-N-(1-methylpiperidin-3-yl)-4-oxo-4,5-dihydro-3H-1-thia-3,5,8-triazaacenaphthylene-2-carboxamide] | <5 |
| Cc1cc(OC(C)C)ccc1N1C(=O)Nc2c(C(=O)N[C@@H]3CCN(C(=O)/C=C/CN(C)C)C3)sc3nccc1c23 [Example 562, (R,E)-N-(1-(4-(Dimethylamino)but-2-enoyl)pyrrolidin-3-yl)-5-(4-isopropoxy-2-methylphenyl)-4-oxo-4,5-dihydro-3H-1-thia-3,5,8-triazaacenaphthylene-2-carboxamide] | 6.7 |
| CN(C)CC(=O)N1CC[C@@H](NC(=O)c2sc3nccc4c3c2NC(=O)N4c2ccc(Oc3ccccc3)cc2)C1 [Example 425, (R)—N-(1-(2-(Dimethylamino)acetyl)pyrrolidin-3-yl)-4-oxo-5-(4-phenoxyphenyl)-4,5-dihydro-3H-1-thia-3,5,8-triazaacenaphthylene-2-carboxamide] | 7.3 |

Same assay, conditions: unphosphorylated-BTK kinase domain, 60 minutes incubation, 50 nM Tracer 236; pIC50 = negative log of the IC50 in molar

| SMILES | BTK_I_binding pIC50 |
| --- | --- |
| Nc1ccc(N2C(=O)Nc3c(C(=O)N[C@@H]4CCCNC4)sc4nccc2c34)cc1 [Example 956, (R)-5-(4-Aminophenyl)-4-oxo-N-(piperidin-3-yl)-4,5-dihydro-3H-1-thia-3,5,8-triazaacenaphthylene-2-carboxamide] | <5 |
| O=C(N[C@@H]1CCN(Cc2ccccc2)C1)c1sc2nccc3c2c1NC(=O)N3c1ccc(Oc2ccccc2)cc1 [Example 925, (R)—N-(1-Benzylpyrrolidin-3-yl)-4-oxo-5-(4-phenoxyphenyl)-4,5-dihydro-3H-1-thia-3,5,8-triazaacenaphthylene-2-carboxamide] | 6.3 |
